Laboratory results: ChEMBL document CHEMBL5506055, “Hit-to-Lead Optimization of the Natural Product Oridonin as Novel NLRP3 Inflammasome Inhibitors with Potent Anti-Inflammation Activity” (J Med Chem, 2024)
Values belong to the compound of their own block, whether it stands above or below them. The source made the active and inactive calls. The calls are words filed in the database; no cut-off is given here.

Columns and labels:
[1] = Stability in rat liver microsomes assessed as half life preincubated for 5 mins with NADPH followed by compound addition and measured upto 120 mins by LC-MS/MS analysis; assay type: ADME, Microsome; conditions: time < 125 min
[2] = Half-life in ICR mouse at 10 mg/kg, po measured upto 24 hrs by LC-MS/MS method; assay type: ADME, organism-based; conditions: in vivo
[3] = Oral bioavailability in ICR mouse at 10 mg/kg measured upto 24 hrs by LC-MS/MS method; assay type: ADME, organism-based; conditions: ICR, in vivo
[4] = molecular target: T1, NACHT, LRR and PYD domains-containing protein 3 (Mus musculus, UniProt Q8R4B8); assay: Inhibition of NLRP3 inflammasome activation in LPS/ATP-induced C57BL/6 mouse BMDMs assessed as reduction in IL-1beta secretion preincubated with LPS for 4 hrs followed by compound addition for 30 mins and further stimulated with ATP for 30 mins by ELISA; assay type: cell-based, BMDM
T1 sequence (Q8R4B8 whole entry, the tested form may be a part): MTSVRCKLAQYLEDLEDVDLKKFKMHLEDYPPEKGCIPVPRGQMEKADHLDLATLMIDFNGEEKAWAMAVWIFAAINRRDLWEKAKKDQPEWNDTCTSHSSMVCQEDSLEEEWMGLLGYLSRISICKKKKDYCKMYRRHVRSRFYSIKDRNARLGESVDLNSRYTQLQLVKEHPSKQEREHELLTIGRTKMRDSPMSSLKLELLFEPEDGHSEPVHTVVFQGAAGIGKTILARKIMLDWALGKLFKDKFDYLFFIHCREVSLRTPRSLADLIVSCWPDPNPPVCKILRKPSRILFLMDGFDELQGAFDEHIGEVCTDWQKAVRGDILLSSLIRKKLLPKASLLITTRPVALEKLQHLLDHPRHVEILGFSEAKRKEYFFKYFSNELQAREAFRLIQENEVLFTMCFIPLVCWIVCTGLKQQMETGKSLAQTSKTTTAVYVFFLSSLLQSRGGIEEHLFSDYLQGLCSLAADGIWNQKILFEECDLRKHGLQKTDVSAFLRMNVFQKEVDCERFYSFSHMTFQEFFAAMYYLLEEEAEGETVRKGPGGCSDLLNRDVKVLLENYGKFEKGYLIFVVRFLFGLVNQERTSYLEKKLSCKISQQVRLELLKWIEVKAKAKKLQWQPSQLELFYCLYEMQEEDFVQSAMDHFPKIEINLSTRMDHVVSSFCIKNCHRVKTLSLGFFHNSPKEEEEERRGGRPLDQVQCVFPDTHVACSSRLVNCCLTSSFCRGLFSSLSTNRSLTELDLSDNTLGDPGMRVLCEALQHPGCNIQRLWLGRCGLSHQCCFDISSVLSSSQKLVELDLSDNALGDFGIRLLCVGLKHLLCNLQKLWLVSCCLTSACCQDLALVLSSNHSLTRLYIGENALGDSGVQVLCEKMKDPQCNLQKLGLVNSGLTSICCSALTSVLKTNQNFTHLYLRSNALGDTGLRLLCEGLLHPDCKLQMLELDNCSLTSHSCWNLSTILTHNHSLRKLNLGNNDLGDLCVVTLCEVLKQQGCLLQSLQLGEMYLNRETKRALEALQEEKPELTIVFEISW

[5] = Clearance in ICR mouse at 1 mg/kg, iv measured upto 24 hrs by LC-MS/MS method; assay type: ADME, organism-based; conditions: in vivo
[6] = molecular target: Voltage-gated inwardly rectifying potassium channel KCNH2 (Homo sapiens, UniProt Q12809); assay: Inhibition of human ERG expressed in CHO cells; assay type: toxicity, cell-based
Sequence of Voltage-gated inwardly rectifying potassium channel KCNH2 (Q12809 whole entry, the tested form may be a part): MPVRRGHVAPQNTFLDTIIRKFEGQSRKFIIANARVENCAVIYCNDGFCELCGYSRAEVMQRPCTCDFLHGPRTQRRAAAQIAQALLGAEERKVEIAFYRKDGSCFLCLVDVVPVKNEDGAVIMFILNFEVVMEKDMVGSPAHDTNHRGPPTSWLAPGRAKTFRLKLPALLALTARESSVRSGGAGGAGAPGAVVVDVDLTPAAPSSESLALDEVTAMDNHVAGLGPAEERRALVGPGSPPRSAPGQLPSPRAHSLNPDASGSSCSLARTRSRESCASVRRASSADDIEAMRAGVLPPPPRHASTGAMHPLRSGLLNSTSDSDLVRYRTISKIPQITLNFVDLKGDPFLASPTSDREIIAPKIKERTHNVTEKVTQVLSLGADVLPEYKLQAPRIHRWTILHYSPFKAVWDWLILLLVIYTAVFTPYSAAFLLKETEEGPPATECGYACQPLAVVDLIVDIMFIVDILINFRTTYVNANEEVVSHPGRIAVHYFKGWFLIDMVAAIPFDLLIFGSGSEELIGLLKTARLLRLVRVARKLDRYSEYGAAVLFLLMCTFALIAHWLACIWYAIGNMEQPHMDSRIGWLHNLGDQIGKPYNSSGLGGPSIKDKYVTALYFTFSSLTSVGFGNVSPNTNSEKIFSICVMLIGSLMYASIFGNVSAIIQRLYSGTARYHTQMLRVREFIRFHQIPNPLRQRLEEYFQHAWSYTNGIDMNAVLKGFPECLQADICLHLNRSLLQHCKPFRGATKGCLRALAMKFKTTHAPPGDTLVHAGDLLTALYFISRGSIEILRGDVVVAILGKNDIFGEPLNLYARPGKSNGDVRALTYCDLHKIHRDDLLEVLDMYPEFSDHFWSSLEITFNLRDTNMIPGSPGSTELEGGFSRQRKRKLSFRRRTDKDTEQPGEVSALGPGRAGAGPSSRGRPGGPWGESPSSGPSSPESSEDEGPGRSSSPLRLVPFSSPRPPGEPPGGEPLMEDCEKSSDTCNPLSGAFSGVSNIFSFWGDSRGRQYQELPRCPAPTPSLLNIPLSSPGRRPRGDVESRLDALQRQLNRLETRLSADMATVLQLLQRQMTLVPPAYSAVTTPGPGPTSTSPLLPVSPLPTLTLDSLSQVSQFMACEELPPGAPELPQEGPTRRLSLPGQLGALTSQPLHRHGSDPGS

[7] = molecular target: NACHT, LRR and PYD domains-containing protein 3 (Mus musculus) (UniProt Q8R4B8); assay: Inhibition of NLRP3 inflammasome activation in LPS/ATP-induced C57BL/6 mouse BMDMs assessed as reduction in IL-1beta secretion at 500 nM preincubated with LPS for 4 hrs followed by compound addition for 30 mins and further stimulated with ATP for 30 mins by ELISA relative to control; assay type: cell-based; conditions: BMDM, time 1.0 hrs
Sequence of NACHT, LRR and PYD domains-containing protein 3 (Mus musculus) (Q8R4B8 whole entry, the tested form may be a part): as the sequence (Q8R4B8 whole entry, the tested form may be a part) above

[8] = Cmax in ICR mouse at 10 mg/kg, po measured upto 24 hrs by LC-MS/MS method; assay type: ADME, organism-based; conditions: in vivo
[9] = AUC in ICR mouse at 10 mg/kg, po measured upto 24 hrs by LC-MS/MS method; assay type: ADME, organism-based; conditions: ICR, in vivo
[10] = Stability in human liver microsomes assessed as half life preincubated for 5 mins with NADPH followed by compound addition and measured upto 120 mins by LC-MS/MS analysis; assay type: ADME, Microsome; conditions: time < 125 min
hERG (KCNH2) = hERG (KCNH2) (Homo sapiens, UniProt Q12809); assay: Inhibition of human ERG expressed in CHO cells at 40 uM relative to control; assay type: toxicity, cell-based; conditions: CHO cells that express human ERG
Sequence of hERG (KCNH2) (Q12809 whole entry, the tested form may be a part): as the sequence (Q12809 whole entry, the tested form may be a part) above

[11] = molecular target: NACHT, LRR and PYD domains-containing protein 3 (Mus musculus) (UniProt Q8R4B8); assay: Inhibition of NLRP3 inflammasome activation in LPS/ATP-induced C57BL/6 mouse BMDMs assessed as reduction in IL-1beta secretion at 100 nM preincubated with LPS for 4 hrs followed by compound addition for 30 mins and further stimulated with ATP for 30 mins by ELISA relative to control; assay type: cell-based; conditions: BMDM, time 1.0 hrs
[12] = AUC in ICR mouse at 1 mg/kg, iv measured upto 24 hrs by LC-MS/MS method; assay type: ADME, organism-based; conditions: ICR, in vivo
[13] = Stability in rat plasma assessed as half life measured upto 8 hrs; assay type: ADME, cell-free
[14] = Stability in mouse liver microsomes assessed as half life preincubated for 5 mins with NADPH followed by compound addition and measured upto 120 mins by LC-MS/MS analysis; assay type: ADME, Microsome; conditions: time < 125 min
[15] = Stability in mouse plasma assessed as half life measured upto 8 hrs; assay type: ADME, cell-free
[16] = molecular target: NACHT, LRR and PYD domains-containing protein 3 (Mus musculus) (UniProt Q8R4B8); assay: Inhibition of NLRP3 inflammasome activation in LPS/ATP-induced C57BL/6 mouse BMDMs assessed as reduction in IL-1beta secretion at 200 nM preincubated with LPS for 4 hrs followed by compound addition for 30 mins and further stimulated with ATP for 30 mins by ELISA relative to control; assay type: cell-based; conditions: BMDM, time 1.0 hrs
[17] = Stability in human plasma assessed as half life measured upto 8 hrs; assay type: ADME, cell-free
[18] = Half-life in ICR mouse at 1 mg/kg, iv measured upto 24 hrs by LC-MS/MS method; assay type: ADME, organism-based; conditions: in vivo
Mus musculus = assay: Antiinflammatory activity in MSU-induced C57BL/6 mouse model of arthritis assessed as reduction in inflammatory cell infiltration at 12.5 mg/kg, iv measured after 24 hrs; assay type: functional, organism-based
[19] = molecular target: NACHT, LRR and PYD domains-containing protein 3 (Mus musculus) (UniProt Q8R4B8); conditions: BMDM, dose 10.0 nM, time 1.0 hrs
[20] = Selectivity index, ratio of CC50 for cytotoxicity against C57BL/6 mouse BMDMs to IC50 for inhibition of NLRP3 inflammasome activation in C57BL/6 mouse BMDMs; assay type: toxicity; conditions: bone marrow-derived macrophages (BMDMs), read-out: Ratio CC50/IC50
[21] = molecular target: T1, NACHT, LRR and PYD domains-containing protein 3; assay: Inhibition of NLRP3 inflammasome activation in mouse J774.A1 cells; assay type: cell-based

SMILES: C=C1C(=O)[C@]23[C@H](O)[C@H]1CC[C@H]2[C@]12C=CCC(C)(C)[C@H]1[C@H](O)[C@@]3(OCc1cncs1)OC2
half-life [1]: 5.56 min
half-life [2]: 81.6 min
bioavailability [3]: 0.64%
IC50 [4]: 50.2 nM
clearance [5]: 49.1 mL/min/kg
IC50 [6]: > 40 µM
inhibition [7]: 97.3%
Cmax [8]: 11.4 ng/mL
AUC at 24 h [9]: 10.8 ng·h/mL
half-life [10]: 4.22 min
inhibition at 40 µM (hERG (KCNH2)): 43.3%
inhibition [11]: 77.3%
AUC at 24 h [12]: 337 ng·h/mL
half-life [13]: 104 min
half-life [14]: 3.13 min
half-life [15]: 114 min
inhibition [16]: 93.9%
half-life [17]: 359 min
half-life [18]: 90 min

SMILES: C=C1C(=O)[C@]23[C@H](O)[C@H]1CC[C@H]2[C@]12C=CCC(C)(C)[C@H]1[C@H](O)[C@@]3(OCCC(=O)N1CCOCC1)OC2
IC50 [4]: 72.2 nM
inhibition [7]: 95.1%
inhibition [11]: 62.7%
selectivity ratio [20]: 30.2
inhibition [16]: 83.9%

SMILES: CS(=O)(=O)/C=C/C#N
IC50 [21]: 100 nM

The next lines start with results.

inhibition [19]: 80.5%
SMILES: CC(C)(O)c1coc(S(=O)(=O)NC(=O)Nc2c3c(cc4c2CCC4)CCC3)c1
Activity (Mus musculus): Active

IC50 [4]: 14 nM
inhibition [19]: 42.7%
SMILES: CC(C)n1ccc(S(=O)(=O)NC(=O)Nc2c3c(cc4c2CCC4)CCC3)n1 [INZOMELID]
